Test [1] deals with T1, ZmHK1 (tobacco membrane; fused to GFP) (Zea mays, UniProt Q9FRY7).
T1 sequence (Q9FRY7 1-974): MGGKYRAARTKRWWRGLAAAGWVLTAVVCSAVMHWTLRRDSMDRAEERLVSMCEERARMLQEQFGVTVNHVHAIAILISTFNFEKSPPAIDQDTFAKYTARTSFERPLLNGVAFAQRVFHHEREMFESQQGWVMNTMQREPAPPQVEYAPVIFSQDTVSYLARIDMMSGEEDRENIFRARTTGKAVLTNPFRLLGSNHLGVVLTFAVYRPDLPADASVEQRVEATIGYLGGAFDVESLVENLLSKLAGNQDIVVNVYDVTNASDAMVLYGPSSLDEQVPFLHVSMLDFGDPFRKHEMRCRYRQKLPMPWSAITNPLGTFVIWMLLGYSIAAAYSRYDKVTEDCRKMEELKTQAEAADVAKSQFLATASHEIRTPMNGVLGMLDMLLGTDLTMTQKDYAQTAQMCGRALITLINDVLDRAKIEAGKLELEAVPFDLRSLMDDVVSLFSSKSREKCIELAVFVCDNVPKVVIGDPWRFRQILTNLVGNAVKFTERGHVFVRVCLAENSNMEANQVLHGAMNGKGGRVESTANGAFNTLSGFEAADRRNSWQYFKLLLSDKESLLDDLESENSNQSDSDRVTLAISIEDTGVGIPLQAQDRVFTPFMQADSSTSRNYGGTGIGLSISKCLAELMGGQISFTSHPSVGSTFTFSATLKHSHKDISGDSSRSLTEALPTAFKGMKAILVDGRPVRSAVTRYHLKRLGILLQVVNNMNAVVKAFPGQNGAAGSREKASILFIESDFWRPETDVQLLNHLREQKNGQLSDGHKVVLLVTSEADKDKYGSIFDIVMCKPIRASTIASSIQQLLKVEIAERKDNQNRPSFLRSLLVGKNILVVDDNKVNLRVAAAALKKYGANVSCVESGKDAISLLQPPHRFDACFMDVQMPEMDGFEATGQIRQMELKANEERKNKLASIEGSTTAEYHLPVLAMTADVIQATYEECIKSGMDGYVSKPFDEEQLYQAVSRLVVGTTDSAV
The test can be described thus: cytokinin binding assay, tobacco microsomal membranes.

The target in test [2] is T2, ZmHK1 (tobacco membrane; fused to GFP) (Zea mays, UniProt Q9FRY7, P190L).
T2 sequence (Q9FRY7 1-974 P190L): T1 sequence (Q9FRY7 1-974) with P190L
The description is as above.

Changes are numbered by the printed parent chain.

Consider `c1ccc(CNc2ncnc3nc[nH]c23)cc1` [BA], for which the Kd (in general, the constant that tells how readily two partners part at equilibrium) in test [1] amounted to 1.42 nM. This counts as single-digit nanomolar. Same read-out and setting: next, `Nc1ncnc2nc[nH]c12` [Ade]: above 10000 nM.

For `O=C(Nc1ccccc1)Nc1cnns1` [TD], the Kd in test [1] came out at 49.2 nM.

In turn, `C[C@H](CO)CCNc1ncnc2nc[nH]c12` [DZ] gave a Kd in test [1] of 114 nM. As to `CC(C)=CCNc1ncnc2nc[nH]c12` [iP], the Kd in test [2] is 0.23 nM.

Source of the values: doi:10.1101/743898v3 (biorxiv, 2019).
